This is an account of results in patent publication US20230072683A1, “PYRIDO-PYRIMIDIN DERIVATIVES AND PHARMACEUTICAL COMPOSITION, FOR USE IN PREVENTING OR TREATING PI3 KINASE RELATED DISEASES, COMPRISING SAME AS ACTIVE INGREDIENT” (BORYUNG PHARMACEUTICAL CO., LTD, priority 2019, published 2023).

Read-outs that look alike come from different tables or passages of the source.

Test [1] has as its target PI3K-δ (PI3K(p1108/p857) (h)) (Homo sapiens, UniProt O00329). Put plainly: Evaluation of inhibitory activity against PI3K-δ (HTRF kinase assay). As to conditions: for inhibition at 0.01 µM: compound concentration 0.01 μM, read-out: EXP_VALUE(% Inhibition) PI3K-δ 0.01 μM; for inhibition at 0.1 µM: read-out: EXP_VALUE(% Inhibition) PI3K-δ 0.1 μM. The test is classed as biochemical. As for the experimental part: <Experimental Example 1> Evaluation of Inhibitory Activity Properties Against PI3K-δ
The following experiments were performed to verify the inhibitory activity against PI3K-δ with regard to each of the compounds of Examples 1 to 441 according to the present invention.
PI3K(p1108/p857) (h) was incubated in assay buffer comprising 10 μM phosphatidylinositol-4,5-bisphosphate and Mg/ATP (at a concentration as required). The reaction was initiated by the addition of a Mg/ATP mixture, and after incubation for 30 minutes at room temperature, a stop solution comprising EDTA and phosphatidylinositol-3,4,5-triphosphate was added to stop the reaction and carry out biotinylation.
A detection buffer comprising Eu (europium)-labelled anti-GST monoclonal antibody, GST-tagged GRP1 PH domain and streptavidin-allophycocyanin was added. A plate was read in a time-resolved fluorescence mode and a homogeneous time-resolved fluorescence (HTRF) signal was determined according to HTRF=10000×(Em 665 nm/Em 620 nm).

For test [2], the target named is DNA-PK(h) (Homo sapiens, UniProt P78527). Put plainly: Evaluation of inhibitory activity against DNA-PK (HTRF kinase assay, GST-cMyc-p53 substrate). The test is classed as biochemical. As to conditions: for inhibition at 0.01 µM: compound concentration 0.01 μM, read-out: EXP_VALUE(% Inhibition) DNA-PK(h) 0.01 μM; for inhibition at 0.1 µM: read-out: EXP_VALUE(% Inhibition) DNA-PK(h) 0.1 μM. As for the experimental part: <Experimental Example 2> Evaluation of Inhibitory Activity Properties Against DNA-PK
The following experiments were performed to verify the inhibitory activity against DNA-PK with regard to each of the compounds of Examples 1 to 441 according to the present invention.
DNA-PK(h) was subjected to an isothermal treatment in an assay buffer comprising […] GST-cMyc-p53 and Mg/ATP (at a concentration as required). The reaction was initiated by the addition of a Mg/ATP mixture, and after incubation for 30 minutes at room temperature, a stop solution comprising EDTA was added to stop the reaction. A detection buffer comprising d2-labelled anti-GST monoclonal antibody and Europium-labelled anti-phospho Ser15 antibody for phosphorylated p53 was added. A plate was read in a time-resolved fluorescence mode and a homogeneous time-resolved fluorescence (HTRF) signal was determined according to HTRF=10000×(Em 665 nm/Em 620 nm).

PI3K-δ (PI3K(p1108/p857) (h)), sequence (O00329 whole entry): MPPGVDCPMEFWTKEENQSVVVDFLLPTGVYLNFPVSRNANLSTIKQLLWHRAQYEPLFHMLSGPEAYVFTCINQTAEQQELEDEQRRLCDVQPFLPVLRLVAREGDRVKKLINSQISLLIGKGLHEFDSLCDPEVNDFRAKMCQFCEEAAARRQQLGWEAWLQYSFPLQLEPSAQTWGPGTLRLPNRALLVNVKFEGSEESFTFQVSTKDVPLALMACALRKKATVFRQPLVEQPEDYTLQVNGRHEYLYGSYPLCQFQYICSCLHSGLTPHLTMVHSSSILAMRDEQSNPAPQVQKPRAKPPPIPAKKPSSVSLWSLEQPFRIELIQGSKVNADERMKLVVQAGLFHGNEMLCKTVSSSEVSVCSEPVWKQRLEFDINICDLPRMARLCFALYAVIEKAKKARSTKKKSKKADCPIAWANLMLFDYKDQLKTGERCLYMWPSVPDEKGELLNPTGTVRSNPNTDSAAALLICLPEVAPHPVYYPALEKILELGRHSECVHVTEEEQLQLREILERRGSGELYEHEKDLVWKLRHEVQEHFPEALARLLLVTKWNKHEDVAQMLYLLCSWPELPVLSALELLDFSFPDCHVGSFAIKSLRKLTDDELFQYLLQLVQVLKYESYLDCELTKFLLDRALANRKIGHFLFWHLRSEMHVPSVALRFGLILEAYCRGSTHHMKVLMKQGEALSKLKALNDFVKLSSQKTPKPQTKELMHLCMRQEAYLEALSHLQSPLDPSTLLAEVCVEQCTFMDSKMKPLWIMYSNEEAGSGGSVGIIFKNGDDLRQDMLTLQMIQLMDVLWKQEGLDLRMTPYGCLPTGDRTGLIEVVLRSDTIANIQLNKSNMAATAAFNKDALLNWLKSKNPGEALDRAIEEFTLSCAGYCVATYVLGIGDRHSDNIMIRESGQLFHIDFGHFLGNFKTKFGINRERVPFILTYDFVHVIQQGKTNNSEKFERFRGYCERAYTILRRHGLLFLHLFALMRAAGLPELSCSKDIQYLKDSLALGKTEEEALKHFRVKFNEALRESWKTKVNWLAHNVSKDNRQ
PI3K-δ (PI3K(p1108/p857) (h)), sequence (P27986 whole entry partner): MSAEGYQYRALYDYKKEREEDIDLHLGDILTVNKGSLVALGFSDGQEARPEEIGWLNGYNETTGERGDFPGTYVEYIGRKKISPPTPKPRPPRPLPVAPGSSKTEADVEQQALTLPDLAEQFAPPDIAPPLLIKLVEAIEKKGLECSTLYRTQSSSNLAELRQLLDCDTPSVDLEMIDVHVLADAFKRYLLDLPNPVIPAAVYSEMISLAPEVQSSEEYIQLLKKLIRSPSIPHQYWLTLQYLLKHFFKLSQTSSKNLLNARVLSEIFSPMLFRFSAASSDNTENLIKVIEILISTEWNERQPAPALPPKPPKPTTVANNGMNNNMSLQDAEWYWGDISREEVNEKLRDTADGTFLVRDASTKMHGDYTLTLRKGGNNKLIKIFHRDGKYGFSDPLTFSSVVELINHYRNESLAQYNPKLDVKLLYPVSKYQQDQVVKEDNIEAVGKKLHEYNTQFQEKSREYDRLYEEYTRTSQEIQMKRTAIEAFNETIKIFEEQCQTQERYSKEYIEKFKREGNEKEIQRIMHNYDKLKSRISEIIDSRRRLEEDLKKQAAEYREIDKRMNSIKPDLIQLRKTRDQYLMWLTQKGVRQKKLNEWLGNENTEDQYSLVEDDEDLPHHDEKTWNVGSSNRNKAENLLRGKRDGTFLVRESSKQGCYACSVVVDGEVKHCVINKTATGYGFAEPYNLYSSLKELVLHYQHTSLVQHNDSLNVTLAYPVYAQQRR

For `C[C@H](Nc1ncnc2[nH]ccc(=O)c12)c1c(Cl)c2cccc(-c3cc4ccccc4o3)c2c(=O)n1-c1ccccc1` [Example 6, (S)-4-((1-(8-(benzofuran-2-yl)-4-chloro-1-oxo-2-phenyl-1,2-dihydroisoquinolin-3-yl)ethyl)amino)pyrido[2,3-d]pyrimidin-5(8H)-one], the values for the inhibition at 0.01 µM in test [1] and in test [2] were 74% and 25%, respectively. In addition, the inhibition at 0.1 µM in test [1] (compound concentration 0.1 μM) is 95%; in test [2] (compound concentration 0.1 μM), 74%.
As for `CCOc1ncc(-c2cccc3cc([C@H](C)Nc4ncnc5[nH]ccc(=O)c45)n(-c4ccccc4)c(=O)c23)cn1` [Example 384, (S)-4-((1-(8-(2-ethoxypyrimidin-5-yl)-1-oxo-2-phenyl-1,2-dihydroisoquinolin-3-yl)ethyl)amino)pyrido[2,3-d]pyrimidin-5(8H)-one], the inhibition at 0.1 µM in test [1] (compound at 0.1 μM) was 85%; in test [2] (compound at 0.1 μM), 40%.
As for `C[C@H](Nc1ncnc2[nH]ccc(=O)c12)c1c(Cl)c2cccc(N)c2c(=O)n1-c1ccccc1` [Example 294, (S)-4-((1-(8-amino-4-chloro-1-oxo-2-phenyl-1,2-dihydroisoquinolin-3-yl)ethyl)amino)pyrido[2,3-d]pyrimidin-5(8H)-one], the values for the inhibition at 0.01 µM in test [1] and in test [2] were 65% and 49%, respectively.
As for `CCC[S@](=N)(=O)c1cccc2c(Cl)c([C@H](C)Nc3ncnc4[nH]ccc(=O)c34)n(-c3ccccc3)c(=O)c12` [Example 409, 4-(((S)-1-(4-chloro-1-oxo-2-phenyl-8-((S)-propylsulfonimidoyl)-1,2-dihydroisoquinolin-3-yl)ethyl)amino)pyrido[2,3-d]pyrimidin-5(8H)-one], the values for the inhibition at 0.1 µM in test [1] (compound at 0.1 μM) and in test [2] (compound at 0.1 μM) were 17% and 53%, respectively.
Consider `C[C@H](Nc1ncnc2[nH]ccc(=O)c12)c1c(Cl)c2cccc(OCC(F)(F)F)c2c(=O)n1-c1ccccc1` [Example 364, (S)-4-((1-(4-chloro-1-oxo-2-phenyl-8-(2,2,2-trifluoroethoxy)-1,2-dihydroisoquinolin-3-yl)ethyl)amino)pyrido[2,3-d]pyrimidin-5(8H)-one], for which the inhibition at 0.01 µM was 29% in test [1] and 21% in test [2]. For the same compound, the values for the inhibition at 0.1 µM in test [1] (compound concentration 0.1 μM) and in test [2] (compound concentration 0.1 μM) were 76% and 82%, respectively.
For the compound `C[C@H](Nc1ncnc2[nH]ccc(=O)c12)c1c(Cl)c2cccc(S(=O)(=O)C(C)(C)C)c2c(=O)n1-c1ccccc1` [Example 433, (S)-4-((1-(8-(tert-butylsulfonyl)-4-chloro-1-oxo-2-phenyl-1,2-dihydroisoquinolin-3-yl)ethyl)amino)pyrido[2,3-d]pyrimidin-5(8H)-one], the figures for the inhibition at 0.1 µM in test [1] (compound at 0.1 μM) and in test [2] (compound at 0.1 μM) were 8% and 24%, respectively.
For `Cc1cc(-c2cccc3c(Cl)c([C@H](C)Nc4ncnc5[nH]ccc(=O)c45)n(-c4ccccc4)c(=O)c23)n[nH]1` [Example 234, (S)-4-((1-(4-chloro-8-(5-methyl-1H-pyrazol-3-yl)-1-oxo-2-phenyl-1,2-dihydroisoquinolin-3-yl)ethyl)amino)pyrido[2,3-d]pyrimidin-5(8H)-one], the inhibition at 0.01 µM in test [1] is 85%; in test [2], 50%.
In the same order, the values of `COc1cc(-c2cccc3c(Cl)c([C@H](C)Nc4ncnc5[nH]ccc(=O)c45)n(-c4ccccc4)c(=O)c23)ccn1` [Example 150, (S)-4-((1-(4-chloro-8-(2-methoxypyridin-4-yl)-1-oxo-2-phenyl-1,2-dihydroisoquinolin-3-yl)ethyl)amino)pyrido[2,3-d]pyrimidin-5(8H)-one] are 105% and 93%.
For `CC(C)Oc1cnc(-c2cccc3c(Cl)c([C@H](C)Nc4ncnc5[nH]ccc(=O)c45)n(-c4ccccc4)c(=O)c23)cn1` [Example 376, (S)-4-((1-(4-chloro-8-(5-isopropoxypyrazin-2-yl)-1-oxo-2-phenyl-1,2-dihydroisoquinolin-3-yl)ethyl)amino)pyrido[2,3-d]pyrimidin-5(8H)-one], the inhibition at 0.1 µM in test [1] (compound at 0.1 μM) was found to be 49%; in test [2] (compound at 0.1 μM), 18%.
With `C[C@H](Nc1ncnc2[nH]ccc(=O)c12)c1c(Cl)c2cccc(-c3ccc(-n4cccc4)nc3)c2c(=O)n1-c1ccccc1` [Example 3, (S)-4-((1-(8-(6-(1H-pyrrol-1-yl)pyridin-3-yl)-4-chloro-1-oxo-2-phenyl-1,2-dihydroisoquinolin-3-yl)ethyl)amino)pyrido[2,3-d]pyrimidin-5(8H)-one], the inhibition at 0.01 µM in test [1] came to 69%; in test [2] it was 44%.
For the compound `C[C@H](Nc1ncnc2[nH]ccc(=O)c12)c1c(Cl)c2cccc(-c3cccc(C=O)c3)c2c(=O)n1-c1ccccc1` [Example 79, (S)-3-(4-chloro-1-oxo-3-(1-((5-oxo-5,8-dihydropyrido[2,3-d]pyrimidin-4-yl)amino)ethyl)-2-phenyl-1,2-dihydroisoquinolin-8-yl)benzaldehyde], the inhibition at 0.01 µM came out at 114% in test [1] and 82% in test [2]. Besides, the inhibition at 0.1 µM in test [1] (compound concentration 0.1 μM) came out at 111%; in test [2] (compound concentration 0.1 μM), 98%.
Turning to `Cc1cc(-c2cccc3c(Cl)c([C@H](C)Nc4ncnc5[nH]ccc(=O)c45)n(-c4ccccc4)c(=O)c23)cc(C)c1O` [Example 126, (S)-4-((1-(4-chloro-8-(4-hydroxy-3,5-dimethylphenyl)-1-oxo-2-phenyl-1,2-dihydroisoquinolin-3-yl)ethyl)amino)pyrido[2,3-d]pyrimidin-5(8H)-one], the inhibition at 0.01 µM turned out to be 74% in test [1] and 70% in test [2]. The inhibition at 0.1 µM amounted to 94% in test [1] (compound concentration 0.1 μM) and 96% in test [2] (compound concentration 0.1 μM).
As for `CC(C)Sc1cccc2c(Cl)c([C@H](C)Nc3ncnc4[nH]ccc(=O)c34)n(-c3ccccc3)c(=O)c12` [Example 415, (S)-4-((1-(4-chloro-8-(isopropylthio)-1-oxo-2-phenyl-1,2-dihydroisoquinolin-3-yl)ethyl)amino)pyrido[2,3-d]pyrimidin-5(8H)-one], the values for the inhibition at 0.1 µM in test [1] (compound at 0.1 μM) and in test [2] (compound at 0.1 μM) were 0% and 23%, respectively.
With `C[C@H](Nc1ncnc2[nH]ccc(=O)c12)c1c(Cl)c2cccc(-c3ccc(CN4CCOCC4)cc3F)c2c(=O)n1-c1ccccc1` [Example 231, (S)-4-((1-(4-chloro-8-(2-fluoro-4-(morpholinomethyl)phenyl)-1-oxo-2-phenyl-1,2-dihydroisoquinolin-3-yl)ethyl)amino)pyrido[2,3-d]pyrimidin-5(8H)-one], the inhibition at 0.01 µM was 44% in test [1] and 67% in test [2].
Taken in the same sequence, the figures for `C[C@H](Nc1ncnc2[nH]ccc(=O)c12)c1c(Cl)c2cccc(-c3ccc(Oc4ccccc4)nc3)c2c(=O)n1-c1ccccc1` [Example 185, (S)-4-((1-(4-chloro-1-oxo-8-(6-phenoxypyridin-3-yl)-2-phenyl-1,2-dihydroisoquinolin-3-yl)ethyl)amino)pyrido[2,3-d]pyrimidin-5(8H)-one] were 95% and 33%.
For `C[C@H](Nc1ncnc2[nH]ccc(=O)c12)c1c(Cl)c2cccc(-c3ccc4c(c3)OCCO4)c2c(=O)n1-c1ccccc1` [Example 253, (S)-4-((1-(4-chloro-8-(2,3-dihydrobenzo[b][1,4]dioxin-6-yl)-1-oxo-2-phenyl-1,2-dihydroisoquinolin-3-yl)ethyl)amino)pyrido[2,3-d]pyrimidin-5(8H)-one], the values for the inhibition at 0.01 µM in test [1] and in test [2] were 105% and 78%, respectively. The inhibition at 0.1 µM is 102% in test [1] (compound concentration 0.1 μM) and 97% in test [2] (compound concentration 0.1 μM).
On to `C[C@H](Nc1ncnc2[nH]ccc(=O)c12)c1c(Cl)c2cccc([S+]([O-])c3ncccn3)c2c(=O)n1-c1ccccc1` (stereo partly drawn) [Example 419, 4-(((1S)-1-(4-chloro-1-oxo-2-phenyl-8-(pyrimidin-2-ylsulfinyl)-1,2-dihydroisoquinolin-3-yl)ethyl)amino)pyrido[2,3-d]pyrimidin-5(8H)-one], for which the inhibition at 0.1 µM in test [1] (compound at 0.1 μM) turned out to be 7%; in test [2] (compound at 0.1 μM) it was 47%.
As to `C[C@H](Nc1ncnc2[nH]ccc(=O)c12)c1c(Cl)c2cccc(-c3ccc4ncnn4c3)c2c(=O)n1-c1ccccc1` [Example 42, (S)-4-((1-(8-([1,2,4]triazolo[1,5-a]pyridin-6-yl)-4-chloro-1-oxo-2-phenyl-1,2-dihydroisoquinolin-3-yl)ethyl)amino)pyrido[2,3-d]pyrimidin-5(8H)-one], the results for the inhibition at 0.01 µM in test [1] and in test [2] were 89% and 76%, respectively.
